BindingDB's records for doi:10.1021/jm00087a006 (University of Michigan, 1992)
Positions of bridges follow the written chain, without caps; N, C: chain ends. Non-standard residues stand in square brackets, D forms with d. Residues, ends and D or L forms follow the SMILES beside them. Phe(4-NO2) = N[C@@H](Cc1ccc([N+](=O)[O-])cc1)C(=O)O; Phe(4-tBu) = CC(C)(C)c1ccc(C[C@H](N)C(=O)O)cc1; Phe(4-Cl) = N[C@@H](Cc1ccc(Cl)cc1)C(=O)O; Phe(3-F) = N[C@@H](Cc1cccc(F)c1)C(=O)O; Phe(4-F) = N[C@@H](Cc1ccc(F)cc1)C(=O)O; Phe(4-Me) = Cc1ccc(C[C@H](N)C(=O)O)cc1; Phe(2-F) = N[C@@H](Cc1ccccc1F)C(=O)O; mTyr = N[C@@H](Cc1cccc(O)c1)C(=O)O; Pen = CC(C)(S)[C@H](N)C(=O)O

Tests used:
[1] = Compound was tested for the inhibition of [3H]- [D-Pen2, D-Pen5]-enkephalin (DPDPE) binding to Opioid receptor delta 1 in guinea pig brain homogenates
[2] = as above; remark: listed apart in the source
[3] = Compound was tested for the inhibition of [3H]- [D-Pen2, D-Pen5]-enkephalin (DPDPE) binding to opioid receptor delta in guinea pig brain homogenates

SMILES	Ki [1] [nM]	Ki [2] [nM]	Ki [3] [nM]
CC1(C)SSC[C@H](NC(=O)[C@@H](N)Cc2ccc(O)cc2)C(=O)N[C@@H](Cc2ccc(O)cc2)C(=O)N[C@@H]1C(=O)O (H-YCY[Pen]-OH; disulfide 2-4)	26		
CC1(C)SSC[C@H](NC(=O)[C@@H](N)Cc2ccc(O)cc2)C(=O)N[C@@H](Cc2ccccc2F)C(=O)N[C@@H]1C(=O)O (H-YC[Phe(2-F)][Pen]-OH; disulfide 2-4)		3.3	
CC1(C)SSC[C@H](NC(=O)[C@@H](N)Cc2ccc(O)cc2)C(=O)N[C@@H](Cc2cccc(F)c2)C(=O)N[C@@H]1C(=O)O (H-YC[Phe(3-F)][Pen]-OH; disulfide 2-4)		2.9	
CC1(C)SSC[C@H](NC(=O)[C@@H](N)Cc2ccc(O)cc2)C(=O)N[C@@H](Cc2ccc(Cl)cc2)C(=O)N[C@@H]1C(=O)O (H-YC[Phe(4-Cl)][Pen]-OH; disulfide 2-4)		0.98	
CC1(C)SSC[C@H](NC(=O)[C@@H](N)Cc2ccc(O)cc2)C(=O)N[C@@H](Cc2ccc(F)cc2)C(=O)N[C@@H]1C(=O)O (H-YC[Phe(4-F)][Pen]-OH; disulfide 2-4)	1.1		
Cc1ccc(C[C@@H]2NC(=O)[C@@H](NC(=O)[C@@H](N)Cc3ccc(O)cc3)CSSC(C)(C)[C@@H](C(=O)O)NC2=O)cc1 (H-YC[Phe(4-Me)][Pen]-OH; disulfide 2-4)		5.4	
CC1(C)SSC[C@H](NC(=O)[C@@H](N)Cc2ccc(O)cc2)C(=O)N[C@@H](Cc2ccc([N+](=O)[O-])cc2)C(=O)N[C@@H]1C(=O)O (H-YC[Phe(4-NO2)][Pen]-OH; disulfide 2-4)	1.7		
CC(C)(C)c1ccc(C[C@@H]2NC(=O)[C@@H](NC(=O)[C@@H](N)Cc3ccc(O)cc3)CSSC(C)(C)[C@@H](C(=O)O)NC2=O)cc1 (H-YC[Phe(4-tBu)][Pen]-OH; disulfide 2-4)	648		37
CC1(C)SSC[C@H](NC(=O)[C@@H](N)Cc2ccc(O)cc2)C(=O)N[C@@H](Cc2cccc(O)c2)C(=O)N[C@@H]1C(=O)O (H-YC[mTyr][Pen]-OH; disulfide 2-4)	148		9.3
